Patent US20250186405A1, “Compound For Use In Treating Narcolepsy” (Alkermes, Inc., priority 2023, published 2025)

Assays:
Assay type in all cases: in vivo, human
[1] = Part 3 relative bioavailability (tablet vs powder-in-capsule) with food effect: plasma PK, 10 mg; settings: for increase of peak plasma concentration, fed vs fasted: 10 mg tablet; for AUC(0-inf) / half-life / Cmax / Tmax: human, plasma, oral
Procedure: (§1) Part 3 compared the relative bioavailability (RelBA) of Compound A between a tablet formulation and the powder-in-capsule formulation. In addition, the food effect (FE) on the bioavailability of Compound A was assessed following administration of tablet formulation. Dose levels were as follows:
(§2) The Part 3 (RelBA with FE) evaluation was conducted using a 2-sequence, 3-period crossover study design in approximately 12 subjects. Subjects in Part 3 were randomized 1:1 to receive 1 of 2 sequences consisting of 3 periods with up to 72 hours of washout between treatments. The first 2 periods were dosed under fasted state and the third period was dosed in a fed state (high-fat meal).
Sequence 1 began with powder-in-capsule formulation in Period 1 (fasted), followed by tablet formulation in Period 2 (fasted) and tablet formulation in Period 3 (fed). Sequence 2 began with tablet formulation in Period 1 (fasted), followed by powder-in-capsule formulation in Period 2 (fasted) and tablet formulation in Period 3 (fed).
(§3) In treatment period(s) under the fed condition, following overnight fast, all subjects were given a high-fat breakfast. Within 30 minutes of starting the consumption of the breakfast, the assigned treatment was administered. […] There was a 72-hour washout period between the treatments.
Relative bioavailability analysis: A mixed effects model was used to evaluate the effect of a tablet formulation on the PK of Compound A. The primary PK parameters, namely, Cmax, AUC0-t, and […], were logarithmically transformed and used as the dependent variable, with treatment (tablet formulation or powder-in-capsule) as a fixed effect, and subject as a random effect. The ratio of the geometric means of the 2 treatments was obtained from the analysis, and a 2-sided 90% CI for the ratio was estimated. In this comparison, the same dose level of Compound A administered under tablet formulation is the test and powder-in-capsule is the reference. Thus, the comparison of interest is as follows: Fasted in new formulation (Test) vs Fasted in powder-in-capsule (Reference).
Food effect analysis: A mixed effects model was used to evaluate the effect of a high-fat, high caloric meal on the PK of Compound A in the tablet formulation. The primary PK parameters, namely, Cmax, AUC0-t, and AUC0-∞, were logarithmically transformed and used as the dependent variable, with treatment (fed or fasted) as a fixed effect, and subject as a random effect. The ratio of the geometric means of the 2 treatments was obtained from the analysis, and a 2-sided 90% CI for the ratio was estimated. In this comparison, the same dose level of Compound A administered under fed conditions is the test and Compound A administered under fasted conditions is the reference. Thus, the comparison of interest is as follows: Fed a high-fat meal in tablet formulation (Test) vs Fasted in tablet formulation (Reference).
Food effect was studied following a high fat (cohort 1) and low fat (cohort 2) meal. Both cohorts were completed in independent studies. For cohort 1, a high-fat meal was served consisting of 800-1,000 total calories with 150 calories from protein, 250 calories from carbohydrates, 500-600 calories from fat (≥50 percent of calories from fat). For cohort 2, a low-fat meal was served consisting of 400-500 total calories with 100-125 calories from fat (25 percent of calories from fat).

healthy adult subjects = experiment: Part 3 RelBA with FE: safety; settings: 10 mg
Procedure: as §1, §2, §3

[2] = test system: subjects with idiopathic hypersomnia (IH); experiment: Part 6 IH: Karolinska Sleepiness Scale (KSS); settings: for Change From Day −1 in Average Karolinska Sleepiness Scale, LSM difference vs placebo: N = 8; for Change From Day −1 in Average Karolinska Sleepiness Scale, LSM: N = 8, average of 1, 2, 4, 6, 8 h
Procedure: At points within the study, subjects were asked to rate their sleepiness using the KSS with regard to the level of sleepiness they experienced over the past 5 minutes.
The KSS is a validated, self-reported outcome measure of subjective sleepiness. The KSS was developed as a one-dimensional measure of sleepiness and has been validated against assessments like EEG and electrooculography activity (Akerstedt and Gillberg 1990). The KSS is comprised of a single question that asks the subject to rate their sleepiness in the immediately preceding 5 minutes on a 9-point scale where 1=extremely alert and 9=very sleepy, great effort to keep awake, fighting sleep. The KSS takes approximately 10 to 15 seconds to complete. Thus, the KSS is well suited for repeated measurement at short intervals as it assesses situational sleepiness within a short timeframe.
The PD parameters in the POC evaluation (e.g., changes from baseline in sleep latency on MWT, number of errors on SART and level of sleepiness on KSS at matched time points) were summarized using descriptive statistics for each time point by dose level.

[3] = 10 mg, 10 mg Capsule (Fasted), Cohort 1, N = 9
[4] = 10 mg, 10 mg Tablet (Fasted), Cohort 1, N = 8
[5] = 10 mg, 10 mg Tablet (Fasted), Cohort 2
[6] = 10 mg, 10 mg Tablet (Fasted), Cohort 2, N = 8
[7] = 10 mg, 10 mg Tablet (Fed, high-fat), Cohort 1
[8] = 10 mg, 10 mg Tablet (Fed, low-fat), Cohort 2
[9] = 10 mg, 10 mg Tablet (Fed, low-fat), Cohort 2, N = 10

CS(=O)(=O)N[C@H]1CCCN2C(=O)COc3ccccc3C3CCC(CC3)OCC12 (stereo partly drawn) [Compound A, N-[(4S,4aR,7α,10α)-1,2,3,4,4a,5,7,8,9,10,16,17-dodecahydro-17-oxo-7,10-ethanopyrido[1,2-d][1,7,4]benzodioxaazacyclotridecin-4-yl]methanesulfonamide]
increase of peak plasma concentration, fed vs fasted ([1]; high-fat meal, Cohort 1): 3 fold
increase of peak plasma concentration, fed vs fasted ([1]; low-fat meal, Cohort 2): approximately 2 fold
AUC0-∞ ratio (tablet/capsule) ([1]; 10 mg, fasted): 1.2
Cmax ratio (tablet Cmax/capsule Cmax) ([1]; 10 mg, fasted): 0.9
AUC(0-inf) [1, 3]: 124 ng·h/mL
half-life [1, 3]: 10.8 h
Cmax ([1]; 10 mg, 10 mg Capsule (Fasted), Cohort 1, geometric mean): 11.8 ng/mL
Tmax ([1]; 10 mg, 10 mg Capsule (Fasted), Cohort 1, median): 2 h
AUC(0-inf) [1, 4]: 144 ng·h/mL
half-life [1, 4]: 11 h
Cmax ([1]; 10 mg, 10 mg Tablet (Fasted), Cohort 1, geometric mean): 10.8 ng/mL
Tmax ([1]; 10 mg, 10 mg Tablet (Fasted), Cohort 1, median): 3.5 h
Cmax [1, 5]: 14.2 ng/mL
Tmax [1, 5]: 2.5 h
AUC(0-inf) [1, 6]: 189 ng·h/mL
half-life [1, 6]: 9.22 h
AUC(0-inf) [1, 7]: 140 ng·h/mL
Cmax [1, 7]: 30.1 ng/mL
half-life [1, 7]: 2.8 h
Tmax ([1]; 10 mg, 10 mg Tablet (Fed, high-fat), Cohort 1, median): 3.5 h
Cmax [1, 8]: 32.1 ng/mL
Tmax [1, 8]: 3.01 h
AUC(0-inf) [1, 9]: 180 ng·h/mL
half-life [1, 9]: 9.69 h
Tolerability (healthy adult subjects; fed and fasted conditions): well tolerated
subjects reporting at least one AE (of 12) (healthy adult subjects; three administrations): 11
LS mean difference vs placebo in change from Day −1, average KSS ([2]; 5 mg): −1.08
Change From Day −1 in Average Karolinska Sleepiness Scale, LSM difference vs placebo ([2]; 5 mg): −1.08
Change From Day −1 in Average Karolinska Sleepiness Scale, LSM ([2]; 5 mg): −1.60
LS mean difference vs placebo in change from Day −1, average KSS ([2]; 12 mg): −0.80
Change From Day −1 in Average Karolinska Sleepiness Scale, LSM difference vs placebo ([2]; 12 mg): −0.80
Change From Day −1 in Average Karolinska Sleepiness Scale, LSM ([2]; 12 mg): −1.33
LS mean difference vs placebo in change from Day −1, average KSS ([2]; 25 mg): −2.18
Change From Day −1 in Average Karolinska Sleepiness Scale, LSM difference vs placebo ([2]; 25 mg): −2.18
Change From Day −1 in Average Karolinska Sleepiness Scale, LSM ([2]; 25 mg): −2.70
